Calls of active or inactive are those of the source. No cut-off for these calls is given here.
What was measured:
[1] = Inhibition of EGF-stimulated viability of mouse JB6 Cl41 cells after 22 hrs by MTS assay; format: functional, cell-based; settings: JB6 Cl41, 22 h
[2] = test system: HL-60; test: Cytotoxicity against human HL60 cells after 22 hrs by MTS assay; format: functional, cell-based; settings: HL-60, 22 h
[3] = test system: THP-1; test: Cytotoxicity against human THP1 cells after 22 hrs by MTS assay; format: functional, cell-based; settings: THP-1, 22 h
[4] = test system: HeLa; test: Cytotoxicity against human HeLa cells after 22 hrs by MTS assay; format: functional, cell-based
[5] = test system: MDA-MB-231; test: Cytotoxicity against human MDA-MB-231 cells after 22 hrs by MTS assay; format: functional, cell-based; settings: MDA-MB-231, 22 h
[6] = test system: DLD-1; test: Cytotoxicity against human DLD1 cells after 22 hrs by MTS assay; format: functional, cell-based; settings: DLD-1, 22 h
[7] = Cytotoxicity against human SNUC4 cells after 22 hrs by MTS assay; format: functional, cell-based; settings: SNU-C4, 22 h
[8] = test system: SK-MEL-28; test: Cytotoxicity against human SK-MEL-28 cells after 22 hrs by MTS assay; format: functional, cell-based; settings: SK-MEL-28, 22 h
[9] = test system: HL-60; test: Induction of apoptosis in human HL60 cells assessed as total apoptotic cells at 50 to 100 nM after 24 hrs by FITC-conjugated annexin V and propidium iodide staining-based flow cytometry; format: functional
[10] = test system: HL-60; test: Induction of apoptosis in human HL60 cells assessed as total apoptotic cells at 1000 nM after 24 hrs by FITC-conjugated annexin V and propidium iodide staining-based flow cytometry; format: functional
[11] = test system: HL-60; test: Induction of apoptosis in human HL60 cells assessed as early apoptotic cells at 50 nM after 24 hrs by FITC-conjugated annexin V and propidium iodide staining-based flow cytometry; format: functional
[12] = test system: HL-60; test: Induction of apoptosis in human HL60 cells assessed as early apoptotic cells at 250 nM after 24 hrs by FITC-conjugated annexin V and propidium iodide staining-based flow cytometry; format: functional
[13] = test system: HL-60; test: Induction of apoptosis in human HL60 cells assessed as early apoptotic cells at 500 to 1000 nM after 24 hrs by FITC-conjugated annexin V and propidium iodide staining-based flow cytometry; format: functional
[14] = test system: HL-60; test: Induction of apoptosis in human HL60 cells assessed as decrease in procaspase-8 level at 500 nM after 24 hrs by Western blot analysis; format: functional, cell-based
[15] = test system: HL-60; test: Induction of apoptosis in human HL60 cells assessed as decrease in procaspase-9 level at 500 nM after 24 hrs by Western blot analysis; format: functional, cell-based
[16] = test system: HL-60; test: Induction of apoptosis in human HL60 cells assessed as decrease in procaspase-3 level at 500 nM after 24 hrs by Western blot analysis; format: functional, cell-based
[17] = test system: HL-60; test: Induction of apoptosis in human HL60 cells assessed as decrease in Bid protein level at 500 nM after 24 hrs by Western blot analysis; format: functional, cell-based
[18] = test system: HL-60; test: Induction of apoptosis in human HL60 cells assessed as decrease in PARP level at 250 nM after 24 hrs by Western blot analysis; format: functional, cell-based
[19] = test system: HL-60; test: Induction of apoptosis in human HL60 cells assessed as decrease in PARP level at 500 nM after 24 hrs by Western blot analysis; format: functional, cell-based
[20] = test system: HL-60; test: Induction of apoptosis in human HL60 cells assessed as change in mitochondrial permeability at 250 nM after 24 hrs by DiOC6 staining-based flow cytometry (RVB = 90.3%); format: functional

## O=C1c2ccccc2-[n+]2ccc3c([nH]c4cc(Br)ccc43)c21.[Cl-]
[1]
  IC50: 144 nM
[2]
  IC50: 142 nM
[3]
  IC50: 161 nM
[4]
  IC50: 86 nM
[5]
  IC50: 173 nM
[6]
  IC50: 118 nM
[7]
  IC50: 125 nM
[8]
  IC50: > 1000 nM
[9]
  Activity: 20%
[10]
  Activity: 90%
[11]
  Activity: 5%
[12]
  Activity: 40%
[13]
  Activity: 20%
[14]
  inhibition: Active
[15]
  inhibition: Active
[16]
  inhibition: Active
[17]
  inhibition: Active
[18]
  inhibition: Active
[19]
  inhibition: Active
[20]
  Activity: 60.1%

Reference: ChEMBL document CHEMBL1165930, “The anticancer activity of 3- and 10-bromofascaplysins is mediated by caspase-8, -9, -3-dependent apoptosis” (Bioorg Med Chem, 2010)
